Reference: ChEMBL document CHEMBL4190268, “Design, synthesis and biological studies of a library of NK1-Receptor Ligands Based on a 5-arylthiosubstituted 2-amino-4,6-diaryl-3-cyano-4H-pyran core: Switch from antagonist to agonist effect by chemical modification” (Eur J Med Chem, 2017)
The source made the active and inactive calls. The calls are words filed in the database; no cut-off is given here.

Experiments:
Substance-P receptor [1] = biological target: T1, Substance-P receptor (Homo sapiens, UniProt P25103); assay: Partial agonist activity at His6-tagged NK1 receptor (unknown origin) expressed in CHO cells assessed as IP1 accumulation at 5 x 10^-5M measured after 30 mins by HTRF-FRET assay relative to control; type: functional, cell-based
Substance-P receptor [2] = biological target: T1, Substance-P receptor; assay: Antagonist activity at His6-tagged NK1 receptor (unknown origin) expressed in CHO cells assessed as inhibition of substance-P-induced IP1 accumulation at 5 x 10^-5M preincubated for 10 mins followed by substance-P addition measured after 30 mins by HTRF-FRET assay relative to control; type: functional, cell-based
Substance-P receptor [3] = biological target: T1, Substance-P receptor; assay: Partial agonist activity at His6-tagged NK1 receptor (unknown origin) expressed in CHO cells assessed as IP1 accumulation at 10^-5 M measured after 30 mins by HTRF-FRET assay relative to control; type: functional, cell-based
Substance-P receptor [4] = biological target: T1, Substance-P receptor; assay: Antagonist activity at His6-tagged NK1 receptor (unknown origin) expressed in CHO cells assessed as inhibition of substance-P-induced IP1 accumulation at 10^-5 M preincubated for 10 mins followed by substance-P addition measured after 30 mins by HTRF-FRET assay relative to control; type: functional, cell-based
A549 [5] = assay: cells; settings: Homo sapiens, A549, 48 h
MRC5 [6] = assay: cells; settings: Homo sapiens, MRC5, 48 h
Description: Cytotoxicity against human MRC5 cells after 48 hrs by MTT assay

A549 [7] = assay: Growth inhibition of human A549 cells at 10^3 uM after 48 hrs by MTT assay relative to control; type: functional
[8] = Cytotoxicity against human MRC5 cells assessed as cell growth inhibition at 10^3 uM after 48 hrs by MTT assay relative to control; type: cell-based; settings: read-out: GI
A549 [9] = assay: Growth inhibition of human A549 cells at 1 mM by inverted microscopic method; type: functional, cell-based
A549 [10] = assay: Cytotoxicity against human A549 cells assessed as cell death at greater than antiproliferative IC50 after 48 hrs by MTT assay relative to control; type: functional
MRC5 [11] = assay: Cytotoxicity against human MRC5 cells assessed as cell death at greater than cytotoxic IC50 after 48 hrs by MTT assay relative to control; type: cell-based; settings: mrc5, 48 h
A549 [12] = assay: Cytotoxicity against human A549 cells assessed as cell viability at 320 uM after 48 hrs by MTT assay relative to control; type: functional; settings: A549, 48 h, read-out: Activity
[13] = Cytotoxicity against human MRC5 cells assessed as cell viability at 320 uM after 48 hrs by MTT assay relative to control; type: cell-based; settings: read-out: Activity
Substance-P receptor [14] = biological target: T1, Substance-P receptor; settings: CHO, 10^-7 M
Description: Antagonist activity at His6-tagged NK1 receptor (unknown origin) expressed in CHO cells assessed as inhibition of substance-P-induced IP1 accumulation at 10^-7 M preincubated for 10 mins followed by substance-P addition measured after 30 mins by HTRF-FRET assay relative to control

Substance-P receptor [15] = biological target: T1, Substance-P receptor; assay: Antagonist activity at His6-tagged NK1 receptor (unknown origin) expressed in CHO cells assessed as inhibition of substance-P-induced IP1 accumulation preincubated for 10 mins followed by substance-P addition measured after 30 mins by HTRF-FRET assay
Substance-P receptor [16] = biological target: T1, Substance-P receptor; assay: Partial agonist activity at His6-tagged NK1 receptor (unknown origin) expressed in CHO cells assessed as IP1 accumulation measured after 30 mins by HTRF-FRET assay; type: functional, cell-based

T1 sequence (P25103 whole entry): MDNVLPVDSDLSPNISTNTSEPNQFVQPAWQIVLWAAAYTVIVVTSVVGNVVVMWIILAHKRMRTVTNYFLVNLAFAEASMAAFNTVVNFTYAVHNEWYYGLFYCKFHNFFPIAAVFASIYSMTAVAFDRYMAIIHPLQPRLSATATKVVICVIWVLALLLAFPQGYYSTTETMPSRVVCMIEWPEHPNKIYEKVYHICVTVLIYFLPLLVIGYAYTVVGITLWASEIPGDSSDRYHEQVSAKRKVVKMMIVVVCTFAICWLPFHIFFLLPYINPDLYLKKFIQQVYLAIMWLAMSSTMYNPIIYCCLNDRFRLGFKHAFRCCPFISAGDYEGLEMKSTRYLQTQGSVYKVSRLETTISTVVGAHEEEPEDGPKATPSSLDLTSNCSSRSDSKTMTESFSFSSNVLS

SMILES	inhibition (Substance-P receptor [2]) [%]	inhibition (Substance-P receptor [4]) [%]	also measured
Cc1ccc(SC2=C(c3ccccn3)OC(NC(=O)C(F)(F)F)=C(C#N)[C@H]2c2ccccc2)cc1	36.8	6.93	Activity (Substance-P receptor [1]): 34.2%; Activity (Substance-P receptor [3]): 13.5%
N#CC1=C(N)OC(c2ccccn2)=C([S+]([O-])c2ccc([N+](=O)[O-])cc2)C1c1ccc([N+](=O)[O-])cc1 (racemic)	56.1	35.6	IC50 (A549 [5]): 536 µM; IC50 (MRC5 [6]): 825 µM
Cc1ccc([S@+]([O-])C2=C(c3ccccn3)OC(N)=C(C#N)[C@H]2c2ccc(F)cc2)cc1	21	–	–
CC(O)C(=O)O (configuration not stated) [LACTIC ACID]	–	–	IC50 (A549 [5]): 26.6 µM; IC50 (MRC5 [6]): 23.9 µM
Cc1ccc(C2C(C#N)=C(N)OC(c3cc(C(F)(F)F)cc(C(F)(F)F)c3)=C2[S+]([O-])c2ccc(C)cc2)cc1 (racemic)	11.5	–	–
COc1ccc([C@H]2C(C#N)=C(N)OC(c3ccccn3)=C2[S@+]([O-])c2ccc(C)cc2)cc1	28.1	-4.43	growth inhibition (GI) (A549 [7]): 100%; inhibition at 48 h, 1000 uM [8]: 30%; growth inhibition (GI) (A549 [9]): Active; IC50 (A549 [5]): 508 µM
Cc1ccc([S@+]([O-])C2=C(c3ccccn3)OC(N)=C(C#N)[C@H]2c2ccccc2)cc1	51.1	42	IC50 (A549 [5]): 172 µM; Activity (A549 [10]): <=80%; IC50 (MRC5 [6]): 132 µM; Activity (MRC5 [11]): < 30%
N#CC1=C(N)OC(c2ccccn2)=C([S+]([O-])c2ccc([N+](=O)[O-])cc2)C1c1ccc(Cl)cc1 (racemic)	32.2	–	–
Cc1ccc([S+]([O-])C2=C(c3ccccn3)OC(N)=C(C#N)C2c2ccc([N+](=O)[O-])cc2)cc1 (racemic)	28.9	30	–
Cc1ccc([S+]([O-])C2=C(c3ccco3)OC(N)=C(C#N)C2c2ccc(Cl)cc2)cc1 (racemic)	12.5	–	–
CC(=O)NC1=C(C#N)[C@H](c2ccc(C)cc2)C([S@+]([O-])c2ccc(C)cc2)=C(c2ccccn2)O1	37.1	21.4	Activity (Substance-P receptor [1]): 30.4%
COc1ccc(C2C(C#N)=C(N)OC(c3ccccn3)=C2[S+]([O-])c2ccccc2)cc1 (racemic)	11.1	–	–
Cc1ccc([S+]([O-])C2=C(c3ccccn3)OC(N)=C(C#N)C2c2ccc(F)cc2)cc1 (racemic)	2.51	–	–
Cc1ccc([S@@+]([O-])C2=C(c3ccccn3)OC(N)=C(C#N)[C@@H]2c2ccccc2)cc1	20.9	28.8	IC50 (A549 [5]): 196 µM; IC50 (MRC5 [6]): 425 µM
Cc1ccc([S+]([O-])C2=C(c3ccccn3)OC(N)=C(C#N)C2c2ccccc2)cc1 (racemic)	24.4	35	–
Cc1ccc([C@H]2C(C#N)=C(N)OC(c3ccccn3)=C2[S@+]([O-])c2ccc(C)cc2)cc1	23.7	37.5	–
N#CC1=C(N)OC(c2ccccn2)=C([S+]([O-])c2ccc([N+](=O)[O-])cc2)C1c1ccccc1 (racemic)	56.6	–	–

SMILES	inhibition (Substance-P receptor [2]) [%]	inhibition (Substance-P receptor [4]) [%]	also measured
Cc1ccc([S@@+]([O-])C2=C(c3ccccn3)OC(N)=C(C#N)[C@@H]2c2ccc([N+](=O)[O-])cc2)cc1	20.6	18.5	–
CC(=O)NC1=C(C#N)[C@@H](c2ccc(C)cc2)C([S@@+]([O-])c2ccc(C)cc2)=C(c2ccccn2)O1	47.2	33.3	Activity (Substance-P receptor [1]): 30.4%; IC50 (A549 [5]): 108 µM; Activity (Substance-P receptor [3]): 19.8%; IC50 (MRC5 [6]): 136 µM
COc1ccc([C@@H]2C(C#N)=C(N)OC(c3ccccn3)=C2[S@@+]([O-])c2ccc(C)cc2)cc1	43.9	34.5	IC50 (A549 [5]): 156 µM; viability at 320 µM (A549 [12]): 7%; IC50 (MRC5 [6]): 430 µM; viability at 48 h, 320 µM [13]: 70%
Cc1ccc(C2C(C#N)=C(N)OC(c3ccccn3)=C2[S+]([O-])c2ccc([N+](=O)[O-])cc2)cc1 (racemic)	38.1	–	–
COc1ccccc1CN[C@H]1C2CCN(CC2)[C@H]1C(c1ccccc1)c1ccccc1 [CP-96345]	–	–	IC50 (A549 [5]): 46.8 µM; IC50 (MRC5 [6]): 57.9 µM; inhibition (Substance-P receptor [14]): 85.3%
N#CC1=C(N)OC(c2ccccn2)=C([S+]([O-])c2ccccc2)C1c1ccc([N+](=O)[O-])cc1 (racemic)	45.9	33.5	–
N#CC1=C(N)OC(c2ccccn2)=C(S(=O)(=O)c2ccccc2)C1c1ccc([N+](=O)[O-])cc1 (racemic)	68.5	45.5	IC50 (Substance-P receptor [15]): 200 µM; IC50 (A549 [5]): 148 µM; IC50 (MRC5 [6]): 140 µM
Cc1ccc([S@+]([O-])C2=C(c3ccccn3)OC(N)=C(C#N)[C@H]2c2cc(C(F)(F)F)cc(C(F)(F)F)c2)cc1	28.6	30	–
Cc1ccc(C2C(C#N)=C(N)OC(c3ccccn3)=C2[S+]([O-])c2ccc(C)cc2)cc1 (racemic)	32.2	32.8	–
N#CC1=C(N)OC(c2ccccn2)=C([S+]([O-])c2ccccc2)C1c1ccccc1 (racemic)	19.8	32	–
Cc1ccc(SC2=C(c3ccccn3)OC(NC(=O)C(F)(F)F)=C(C#N)[C@H]2c2ccc([N+](=O)[O-])cc2)cc1	23.8	–	EC50 (Substance-P receptor [16]): 350 µM; Activity (Substance-P receptor [1]): 62.3%; Activity (Substance-P receptor [3]): 25.9%
Cc1ccc([S@@+]([O-])C2=C(c3ccccn3)OC(N)=C(C#N)[C@@H]2c2ccc(F)cc2)cc1	11.2	–	–
Cc1ccc([S@+]([O-])C2=C(c3ccccn3)OC(N)=C(C#N)[C@H]2c2ccc([N+](=O)[O-])cc2)cc1	49.7	43.3	–
Cc1ccc([S@+]([O-])C2=C(c3ccccn3)OC(N)=C(C#N)[C@H]2c2ccc(Cl)cc2)cc1	21	30	–
Cc1ccc([S+]([O-])C2=C(c3ccccn3)OC(N)=C(C#N)C2c2ccc(Cl)cc2)cc1 (racemic)	15.8	13.9	–
Cc1ccc([C@@H]2C(C#N)=C(N)OC(c3ccccn3)=C2[S@@+]([O-])c2ccc(C)cc2)cc1	50.8	37	–
Cc1ccc([S@@+]([O-])C2=C(c3ccccn3)OC(N)=C(C#N)[C@@H]2c2ccc(Cl)cc2)cc1	5.8	–	–
